According to US10294202B2, “Pyrrolidinones as herbicides” (FMC Corporation, priority 2013, dated 2019):

How the values were obtained:
canarygrass = experiment: Test D pre-/postemergence herbicide test; type: in vivo, Phalaris minor; conditions: Preemergence; for Plant response rating, Canarygrass: scale 0 to 100 (0 no effect, 100 complete control); for Plant response rating: 250 g ai/ha, Canarygrass, scale 0 to 100
How it was run: (§1)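 Visual 0–100 ratings (0 = no effect, 100 = complete control) versus controls, made 7 to 21 days after treatment in a controlled growth environment. Test chemicals in surfactant-containing non-phytotoxic solvent were applied preemergence to silt loam-sown seeds and postemergence to plants 2–18 cm tall.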

panicum, fall = experiment: Test E preemergence herbicide test; type: in vivo, Panicum dichotomiflorum; design: key: 0 = no effect, 100 = complete control
How it was run: (§2)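 Response is a 0–100 visual rating against controls (100 = complete control), taken 21 days after preemergence treatment of seeded silt loam soil held in a greenhouse.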

barnyardgrass = experiment: Test E preemergence herbicide test; type: in vivo, Echinochloa crus-galli; design: key: 0 = no effect, 100 = complete control
How it was run: as §2

watergrass, late = experiment: Test F flood (paddy) test; type: in vivo, Echinochloa oryzicola; conditions: 21 d, scale 0-100
How it was run: (§3)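 Greenhouse paddy, 30/27 °C day/night, 16-h light; sterilized Tama silt loam, 2.6% OM. Plants at 2.0–2.5 leaves; flood 3 cm, compound added directly to water. Visual score at 21 d, 0 = no effect, 100 = complete control, relative to untreated.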

foxtail, green = experiment: Test E preemergence herbicide test; type: in vivo, Setaria viridis; design: key: 0 = no effect, 100 = complete control
How it was run: as §2

rice, transplanted = experiment: Test F flood (paddy) test; type: in vivo, Oryza sativa cv. Japonica—M202; conditions: 21 d, scale 0-100
How it was run: as §3

mustard, wild = experiment: Test D pre-/postemergence herbicide test; type: in vivo, Sinapis arvensis; conditions: Preemergence; for Plant response rating, Mustard, Wild: scale 0 to 100 (0 no effect, 100 complete control); for Plant response rating: 250 g ai/ha, Mustard, Wild, scale 0 to 100
How it was run: as §1

SMILES	Plant response rating, Canarygrass (canarygrass; 62 g ai/ha)	Plant response rating, Canarygrass (canarygrass; 125 g ai/ha)	Plant response rating, Canarygrass (canarygrass; 31 g ai/ha)	Plant response rating (canarygrass)	Plant response rating, Panicum, Fall (panicum, fall; 31 g ai/ha)	Plant response rating, Panicum, Fall (panicum, fall; 62 g ai/ha)	Plant response rating, Panicum, Fall (panicum, fall; 125 g ai/ha)	Plant response rating, Panicum, Fall (panicum, fall; 250 g ai/ha)	Plant response rating, Barnyardgrass (barnyardgrass; 31 g ai/ha)	Plant response rating, Barnyardgrass (barnyardgrass; 62 g ai/ha)	Plant response rating, Barnyardgrass (barnyardgrass; 125 g ai/ha)	Plant response rating, Barnyardgrass (barnyardgrass; 250 g ai/ha)	Plant response rating, Watergrass, Late (watergrass, late; 125 g ai/ha)	Plant response rating, Watergrass, Late (watergrass, late; 250 g ai/ha)	Plant response rating, Watergrass, Late (watergrass, late; 500 g ai/ha)	Plant response rating, Foxtail, Green (foxtail, green; 31 g ai/ha)	Plant response rating, Foxtail, Green (foxtail, green; 62 g ai/ha)	Plant response rating, Foxtail, Green (foxtail, green; 125 g ai/ha)	Plant response rating, Foxtail, Green (foxtail, green; 250 g ai/ha)	Plant response rating, Rice, Transplanted (rice, transplanted; 125 g ai/ha)	further results
O=C1NC[C@H](c2cccc(C(F)(F)F)c2)[C@H]1C(=O)Nc1ccccc1F [Compound 204, (3R,4S)—N-(2-fluorophenyl)-2-oxo-4-[3-(trifluoromethyl)phenyl]-3-pyrrolidinecarboxamide]	10	10	0	75	0	0	75	75	20	75	98	98	70	98	98	40	98	95	98	0	Plant response rating, Rice, Transplanted (rice, transplanted; 250 g ai/ha): 0; Plant response rating, Rice, Transplanted (rice, transplanted; 500 g ai/ha): 0; Plant response rating, Mustard, Wild (mustard, wild; 62 g ai/ha): 20; Plant response rating, Mustard, Wild (mustard, wild; 125 g ai/ha): 20; Plant response rating, Mustard, Wild (mustard, wild; 31 g ai/ha): 0; Plant response rating (mustard, wild): 20
O=C1NC[C@H](c2cccc(C(F)(F)F)c2)[C@H]1C(=O)Nc1cccc(F)c1F [Compound 206]	75	85	55	85	75	98	98	98	70	75	95	98	100	100	100	80	98	98	98	0	Plant response rating, Watergrass, Late (watergrass, late; 64 g ai/ha): 90; Plant response rating, Rice, Transplanted (rice, transplanted; 64 g ai/ha): 0; Plant response rating, Rice, Transplanted (rice, transplanted; 250 g ai/ha): 10; Plant response rating, Rice, Transplanted (rice, transplanted; 500 g ai/ha): 40; Plant response rating, Mustard, Wild (mustard, wild; 62 g ai/ha): 0; Plant response rating, Mustard, Wild (mustard, wild; 125 g ai/ha): 0; Plant response rating, Mustard, Wild (mustard, wild; 31 g ai/ha): 0; Plant response rating (mustard, wild): 75
